The text below walks through data of patent US10112926B2 (priority 2014, dated 2018).

Structures can show the parent of a compound that is named as a salt.

The target of test [1] is Vps34 (Homo sapiens (Human), UniProt Q8NEB9). The note with it: read-out: Assay C VPS34 IC50.
Test [2] concerns the target PI 4-kinase beta (Homo sapiens (Human), UniProt Q9UBF8). To be noted: read-out: Assay D PI4Kβ IC50.

Chain of Vps34 (Q8NEB9 whole entry): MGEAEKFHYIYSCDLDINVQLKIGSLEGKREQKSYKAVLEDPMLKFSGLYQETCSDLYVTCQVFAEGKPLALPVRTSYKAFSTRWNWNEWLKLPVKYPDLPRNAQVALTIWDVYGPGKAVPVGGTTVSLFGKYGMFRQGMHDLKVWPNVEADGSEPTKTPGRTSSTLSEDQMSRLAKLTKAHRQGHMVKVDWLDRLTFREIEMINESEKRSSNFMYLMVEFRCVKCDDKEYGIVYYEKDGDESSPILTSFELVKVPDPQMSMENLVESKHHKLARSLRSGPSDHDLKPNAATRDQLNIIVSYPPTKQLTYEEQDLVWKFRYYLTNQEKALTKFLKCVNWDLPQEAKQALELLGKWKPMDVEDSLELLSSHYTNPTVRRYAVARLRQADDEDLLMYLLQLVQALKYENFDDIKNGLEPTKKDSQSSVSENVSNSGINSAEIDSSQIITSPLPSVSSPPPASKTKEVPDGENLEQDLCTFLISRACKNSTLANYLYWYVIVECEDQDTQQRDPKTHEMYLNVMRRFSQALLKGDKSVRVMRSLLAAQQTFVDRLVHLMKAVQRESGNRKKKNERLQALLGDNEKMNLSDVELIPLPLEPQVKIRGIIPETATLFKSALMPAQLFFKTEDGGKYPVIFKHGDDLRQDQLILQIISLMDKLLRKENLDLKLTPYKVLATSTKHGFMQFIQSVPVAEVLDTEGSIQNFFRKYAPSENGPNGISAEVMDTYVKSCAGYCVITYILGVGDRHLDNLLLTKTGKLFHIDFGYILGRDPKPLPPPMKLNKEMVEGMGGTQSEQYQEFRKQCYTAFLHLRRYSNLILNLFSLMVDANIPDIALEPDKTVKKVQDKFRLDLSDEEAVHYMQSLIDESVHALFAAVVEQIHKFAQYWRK
Chain of PI 4-kinase beta (Q9UBF8 whole entry): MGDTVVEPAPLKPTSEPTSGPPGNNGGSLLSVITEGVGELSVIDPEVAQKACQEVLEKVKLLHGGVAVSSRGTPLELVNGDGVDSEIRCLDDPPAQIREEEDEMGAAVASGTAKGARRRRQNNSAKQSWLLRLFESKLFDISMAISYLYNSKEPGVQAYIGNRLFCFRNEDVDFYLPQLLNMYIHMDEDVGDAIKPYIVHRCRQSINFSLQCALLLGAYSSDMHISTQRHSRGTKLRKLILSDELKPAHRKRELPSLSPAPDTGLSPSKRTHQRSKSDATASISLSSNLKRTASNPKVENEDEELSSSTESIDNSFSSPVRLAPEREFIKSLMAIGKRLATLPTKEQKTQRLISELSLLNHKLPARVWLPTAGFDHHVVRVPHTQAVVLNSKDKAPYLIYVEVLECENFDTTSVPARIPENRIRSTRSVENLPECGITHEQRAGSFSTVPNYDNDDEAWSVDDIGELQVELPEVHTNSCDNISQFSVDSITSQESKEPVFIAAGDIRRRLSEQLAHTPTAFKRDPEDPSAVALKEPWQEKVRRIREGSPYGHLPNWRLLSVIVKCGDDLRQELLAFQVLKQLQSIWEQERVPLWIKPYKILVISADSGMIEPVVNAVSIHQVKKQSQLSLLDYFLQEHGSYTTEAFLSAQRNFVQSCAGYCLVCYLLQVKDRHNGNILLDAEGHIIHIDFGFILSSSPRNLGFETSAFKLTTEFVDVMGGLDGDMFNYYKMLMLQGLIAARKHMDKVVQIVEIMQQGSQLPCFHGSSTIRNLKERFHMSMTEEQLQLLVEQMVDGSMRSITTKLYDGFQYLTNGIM

For the molecule `Cc1noc(-c2cc(-c3cc(S(=O)(=O)NCCC4(O)CCCCC4)ccc3C)cnc2N)n1` [Example 37.31, 3-(6-Amino-5-(3-methyl-1,2,4-oxadiazol-5-yl)pyridin-3-yl)-N-(2-(1-hydroxycyclohexyl)ethyl)-4-methylbenzenesulfonamide], the IC50 is more than 10 µM in test [1] and 6.2 µM in test [2].
Taken in the same sequence, the figures for `Cc1ccc(S(=O)(=O)NCC(C)(C)O)cc1-c1cnc(N)c(-c2ccn(C)n2)c1` [Example 110, 3-(6-amino-5-(1-methyl-1H-pyrazol-3-yl)pyridin-3-yl)-N-(2-hydroxy-2-methylpropyl)-4-methylbenzenesulfonamide] were more than 10 µM and more than 10 µM.
Turning to `Cc1ncc(-c2cc(-c3cc(S(=O)(=O)NCC4(C)COC4)ccc3C)cnc2N)o1` [Example 69, 3-(6-Amino-5-(2-methyloxazol-5-yl)pyridin-3-yl)-4-methyl-N-((3-methyloxetan-3-yl)methyl)benzenesulfonamide], the IC50 in test [1] worked out at 4.4 µM; in test [2], 2.4 µM.
Turning to `Cc1ccc(S(=O)(=O)N[C@H]2CC[C@H](O)CC2)cc1-c1cnc(N)c(-c2cc(C(C)(C)C)no2)c1` [Example 35.2, trans-3-(6-Amino-5-(3-(tert-butyl)isoxazol-5-yl)pyridin-3-yl)-N-(−4-hydroxycyclohexyl)-4-methylbenzenesulfonamide hydrochloride], the IC50 is more than 10 µM in test [1] and 0.63 µM in test [2].
On the same counts, the results for `Cc1nnc(-c2cc(-c3cc(S(=O)(=O)NCCC(C)(C)O)ccc3C)cnc2N)s1` [Example 105, 3-(6-amino-5-(5-methyl-1,3,4-thiadiazol-2-yl)pyridin-3-yl)-N-(3-hydroxy-3-methylbutyl)-4-methylbenzenesulfonamide] are more than 10 µM and 2.9 µM.
On the same counts, the results for `Cc1ccc(S(=O)(=O)NCCC(C)(C)O)cc1-c1cnc(N)c(-c2nc(CC(F)(F)F)no2)c1` [Example 79, 3-(6-Amino-5-(3-(2,2,2-trifluoroethyl)-1,2,4-oxadiazol-5-yl)pyridin-3-yl)-N-(3-hydroxy-3-methylbutyl)-4-methylbenzenesulfonamide] are more than 10 µM and 2.8 µM.
As to `Cc1noc(-c2cc(-c3cc(S(=O)(=O)NCC4(O)CC4)ccc3C)cnc2N)n1` [Example 37.19, 3-(6-Amino-5-(3-methyl-1,2,4-oxadiazol-5-yl)pyridin-3-yl)-N-((1-hydroxycyclopropyl)methyl)-4-methylbenzenesulfonamide], the IC50 is more than 10 µM in test [1] and 8.6 µM in test [2].
With `Cc1cc(-c2cc(-c3cc(S(=O)(=O)NC4CCOC4=O)ccc3C)cnc2N)on1` (centres unmarked) [Example 19.2, 3-(6-amino-5-(3-methylisoxazol-5-yl)pyridin-3-yl)-4-methyl-N-(2-oxotetrahydrofuran-3-yl)benzene sulfonamide trifluoroacetic acid salt], the IC50 is more than 10 µM in test [1] and 3.7 µM in test [2].
On the same counts, the results for `Cc1noc(-c2cc(-c3cc(S(=O)(=O)NCC4(CO)CCOCC4)ccc3C)cnc2N)n1` [Example 37.10, 3-(6-Amino-5-(3-methyl-1,2,4-oxadiazol-5-yl)pyridin-3-yl)-N-((4-(hydroxymethyl)tetrahydro-2H-pyran-4-yl)methyl)-4-methylbenzenesulfonamide] are more than 10 µM and more than 10 µM.
Taken in the same sequence, the figures for `Cc1noc(-c2cc(-c3cc(S(=O)(=O)NCC4(O)COC4)ccc3C)cnc2N)n1` [Example 56, 3-(6-Amino-5-(3-methyl-1,2,4-oxadiazol-5-yl)pyridin-3-yl)-N-((3-hydroxyoxetan-3-yl)methyl)-4-methylbenzenesulfonamide] were more than 10 µM and more than 10 µM.
Taken in the same sequence, the figures for `Cc1cc(-c2cc(-c3cc(S(=O)(=O)N[C@@H](C)C4CC4)ccc3C)cnc2N)on1` [Example 19.13, (S)-3-(6-amino-5-(3-methylisoxazol-5-yl)pyridin-3-yl)-N-(1-cyclopropylethyl)-4-methylbenzenesulfon-amide trifluoroacetic acid salt] were more than 10 µM and 1.6 µM.
With `Cc1ncc(-c2cc(-c3cc(S(=O)(=O)NCC4(O)COC4)ccc3C)cnc2N)o1` [Example 104.7, 3-(6-amino-5-(2-methyloxazol-5-yl)pyridin-3-yl)-N-((3-hydroxyoxetan-3-yl)methyl)-4-methylbenzenesulfon-amide], the IC50 was found to be 3.2 µM in test [1] and 1.8 µM in test [2].
On the same counts, the results for `Cc1cc(-c2cc(-c3cc(S(=O)(=O)N[C@H]4CCC[C@H](O)C4)ccc3C)cnc2N)on1` [Example 19.16, 3-(6-amino-5-(3-methylisoxazol-5-yl)pyridin-3-yl)-N-((1S,3S)-3-hydroxycyclohexyl)-4-methylbenzenesulfon-amide trifluoroacetic acid salt] are more than 10 µM and 1.5 µM.
On the same counts, the results for `Cc1ncc(-c2cc(-c3cc(S(=O)(=O)NCC4COC4)ccc3C)cnc2N)o1` [Example 104.3, 3-(6-amino-5-(2-methyloxazol-5-yl)pyridin-3-yl)-4-methyl-N-(oxetan-3-ylmethyl)benzenesulfon-amide] are 4.7 µM and 4.6 µM.
On the same counts, the results for `Cc1ncc(-c2cc(-c3cc(S(=O)(=O)NCC4(CO)CCOCC4)ccc3C)cnc2N)o1` [Example 104.13, 3-(6-amino-5-(2-methyloxazol-5-yl)pyridin-3-yl)-N-((4-(hydroxymethyl)tetra-hydro-2H-pyran-4-yl)methyl)-4-methylbenzenesulfon-amide] are more than 10 µM and 3.4 µM.
Take `Cc1cc(-c2cc(-c3cc(S(=O)(=O)NC[C@@H]4CCOC4)ccc3C)cnc2N)on1` [Example 38, (S)-3-(6-Amino-5-(3-methylisoxazol-5-yl)pyridin-3-yl)-4-methyl-N-((tetrahydrofuran-3-yl)methyl)benzenesulfonamide]: the IC50 in test [1] was more than 10 µM; in test [2], 3.1 µM.
On the same counts, the results for `Cc1cc(-c2cc(-c3cc(S(=O)(=O)NCC4(CO)CCC4)ccc3C)cnc2N)on1` [Example 37.6, 3-(6-Amino-5-(3-methylisoxazol-5-yl)pyridin-3-yl)-N-((1-(hydroxymethyl)cyclobutyl)methyl)-4-methylbenzenesulfonamide] are more than 10 µM and 2.2 µM.
`Cc1ccc(S(=O)(=O)NCC(C)(C)O)cc1-c1cnc(N)c(-c2ncco2)c1` [Example 94b, 3-(6-amino-5-(oxazol-2-yl)pyridin-3-yl)-N-(2-hydroxy-2-methylpropyl)-4-methylbenzenesulfonamide]: the IC50 in test [1] is more than 10 µM; in test [2], 1.3 µM.
`Cc1ccc(S(=O)(=O)NCC(C)(C)O)cc1-c1cnc(N)c(-n2cncn2)c1` [Example 81, 3-(6-Amino-5-(1H-1,2,4-triazol-1-yl)pyridin-3-yl)-N-(2-hydroxy-2-methylpropyl)-4-methylbenzenesulfonamide hydrochloride]: the figures for the IC50 in test [1] and in test [2] were more than 9.8 µM and more than 9.78 µM, respectively.
As to `Cc1nc(-c2cc(-c3cc(S(=O)(=O)NCCC(C)(C)O)ccc3C)cnc2N)cs1` [Example 93, 3-(6-Amino-5-(2-methylthiazol-4-yl)pyridin-3-yl)-N-(3-hydroxy-3-methylbutyl)-4-methylbenzenesulfonamide], the IC50 is more than 10 µM in test [1] and 7.5 µM in test [2].
On the same counts, the results for `Cc1cc(-c2cc(-c3cc(S(=O)(=O)NCC4COC4)ccc3C)cnc2N)on1` [Example 25, 3-(6-Amino-5-(3-methylisoxazol-5-yl)pyridin-3-yl)-4-methyl-N-(oxetan-3-ylmethyl)benzenesulfonamide] are more than 10 µM and 1.3 µM.
On the same counts, the results for `Cc1ccc(S(=O)(=O)NCC(C)(C)O)cc1-c1cnc(N)c(-c2cc(C3CC3)no2)c1` [Example 35.3, 3-(6-Amino-5-(3-cyclopropylisoxazol-5-yl)pyridin-3-yl)-N-(2-hydroxy-2-methylpropyl)-4-methylbenzenesulfonamide hydrochloride] are more than 10 µM and 1.3 µM.
Turning to `Cc1ccc(S(=O)(=O)NCC(C)(C)O)cc1-c1cnc(N)c(-c2cn(C)nn2)c1` [Example 63, 3-(6-Amino-5-(1-methyl-1H-1,2,3-triazol-4-yl)pyridin-3-yl)-N-(2-hydroxy-2-methylpropyl)-4-methylbenzenesulfonamide hydrochloride], the IC50 in test [1] was more than 10 µM; in test [2], 9.6 µM.
Taken in the same sequence, the figures for `Cc1cc(-c2cc(-c3cc(S(=O)(=O)NC[C@H]4C[C@@H](O)C4)ccc3C)cnc2N)on1` [Example 84, cis-3-(6-Amino-5-(3-methylisoxazol-5-yl)pyridin-3-yl)-N-(((1s,3s)-3-hydroxycyclobutyl)methyl)-4-methylbenzenesulfonamide] were more than 10 µM and 2.65 µM.
Taken in the same sequence, the figures for `Cc1noc(-c2cc(-c3cc(S(=O)(=O)NCC(C)(C)O)ccc3C)cnc2N)n1` [Example 10, 3-(6-Amino-5-(3-methyl-1,2,4-oxadiazol-5-yl)pyridin-3-yl)-N-(2-hydroxy-2-methylpropyl)-4-methylbenzenesulfonamide, hydrochloride salt] were more than 9.8 µM and more than 9.8 µM.
Consider `Cc1nnc(-c2cc(-c3cc(S(=O)(=O)NCC(C)(C)O)ccc3C)cnc2N)s1` [Example 102, 3-(6-amino-5-(5-methyl-1,3,4-thiadiazol-2-yl)pyridin-3-yl)-N-(2-hydroxy-2-methylpropyl)-4-methylbenzenesulfonamide], for which the IC50 in test [1] is more than 10 µM; in test [2] it was 8.6 µM.
As to `Cc1ncc(-c2cc(-c3cc(S(=O)(=O)N[C@H]4CC[C@H](CO)CC4)ccc3C)cnc2N)o1` [Example 104.11, 3-(6-amino-5-(2-methyloxazol-5-yl)pyridin-3-yl)-N-((1r,4r)-4-(hydroxymethyl)cyclo-hexyl)-4-methylbenzenesulfon-amide], the IC50 in test [1] is 0.3 µM; in test [2], 0.5 µM.
On the same counts, the results for `Cc1cc(-c2cc(-c3cc(S(=O)(=O)NC4CC4)ccc3C)cnc2N)on1` [Example 31, 3-(6-Amino-5-(3-methylisoxazol-5-yl)pyridin-3-yl)-N-cyclopropyl-4-methylbenzenesulfonamide] are more than 10 µM and 1.26 µM.
